Assay results published in paper PMC11497070 (Chemical Communications (Cambridge, England), 2024).
Non-standard residues stand in square brackets, D forms with d. Residues, ends and D or L forms follow the SMILES beside them. *: point of attachment. Ala(7-MeO-coumarin-4-yl) = COc1ccc2c(C[C@H](N)C(=O)O)cc(=O)oc2c1; X1 = N[C@@H](Cc1ccc(O)cc1)C(=S)N1CCC[C@H]1C(=O)*

molecular target: T1, DPP-4 (Homo sapiens, UniProt P27487); experiment: DPP-4 proteolysis steady state fluorescence assay with μ-tagged probes; assay type: in vitro ADME; conditions: 5 μM peptide, 2.31 ng/μL DPP-4, DPBS pH 7.6, 27 °C, fluorescence λex 325 nm / λem 390 nm, average of three replicates
T1 construct: purchased Sigma Aldrich D3446
Experimental: Phan et al. Supporting Information
4. DPP-4 Proteolysis Assays (Steady State Assays)
A 19 μL solution of 5.3 μM peptide was incubated in the absence or presence of 1 μL of 46.2 ng/μL DPP-4 (Sigma Aldrich, D3446), to final concentrations of 5 μM peptide and 2.31 ng/μL […]
For the PP-based probes (APLEPμ & ASPLEPμ), […]
additional assays were conducted at higher DPP-4 concentration of 4.62 ng/μL to improve the cleavage rate and kinetics of the thioamide probes (Figure S17B). For the μ-tagged probes, the […]
nm on the Tecan M1000 plate reader. Three replicates were performed for each assay to ensure reproducibility. These primary data are shown. At the end of the plate-reader assay, the sample was diluted to a final volume of 170 μL for validation with HPLC. MALDI MS & HPLC analysis of peptide proteolysis by DPP-4 were also done to confirm the cleavage sites, indicated by the slashes (e.g. YP/SKPµ) as summarized in Figures S14-S17, and Tables S4-S7. A Phenomenex Luna® Omega 5 µm PS C18 100 Å analytical HPLC column was used to analyze all samples using the same gradient of 20-25 % B over 35 minutes (Solvent A: 0.1% TFA in Milli-Q water; Solvent B: 0.1% TFA in acetonitrile).

T1 sequence (P27487 whole entry): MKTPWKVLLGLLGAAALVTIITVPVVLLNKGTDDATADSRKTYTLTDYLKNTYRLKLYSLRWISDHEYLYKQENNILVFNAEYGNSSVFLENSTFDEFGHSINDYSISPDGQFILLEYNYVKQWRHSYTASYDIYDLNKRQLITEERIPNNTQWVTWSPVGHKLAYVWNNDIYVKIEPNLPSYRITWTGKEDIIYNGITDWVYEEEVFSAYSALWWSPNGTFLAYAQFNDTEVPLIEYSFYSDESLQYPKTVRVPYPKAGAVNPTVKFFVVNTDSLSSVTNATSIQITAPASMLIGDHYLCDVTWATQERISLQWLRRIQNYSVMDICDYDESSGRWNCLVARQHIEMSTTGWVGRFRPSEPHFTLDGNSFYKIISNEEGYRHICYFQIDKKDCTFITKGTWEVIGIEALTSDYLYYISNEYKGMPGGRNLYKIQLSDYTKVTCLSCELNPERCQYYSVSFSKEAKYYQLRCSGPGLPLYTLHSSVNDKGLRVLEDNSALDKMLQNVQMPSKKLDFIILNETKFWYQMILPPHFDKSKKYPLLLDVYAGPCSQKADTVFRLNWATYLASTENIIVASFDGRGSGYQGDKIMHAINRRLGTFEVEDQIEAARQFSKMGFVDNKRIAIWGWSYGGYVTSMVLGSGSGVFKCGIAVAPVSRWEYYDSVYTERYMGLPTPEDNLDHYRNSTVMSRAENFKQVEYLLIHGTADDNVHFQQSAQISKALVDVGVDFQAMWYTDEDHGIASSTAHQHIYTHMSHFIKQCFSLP

| Compound | t1/2 of cleavage by DPP-4 (μ-labeled probe) [min] |
| --- | --- |
| COc1ccc2c(C[C@H](NC(=O)[C@@H]3CCCN3C(=O)[C@H](CCCCN)NC(=O)[C@H](CO)NC(=O)[C@@H]3CCCN3C(=S)[C@@H](N)Cc3ccc(O)cc3)C(=O)O)cc(=O)oc2c1 [Y^sPSKPμ] (X1-SKP[Ala(7-MeO-coumarin-4-yl)]-OH) | 26 |

same assay, conditions: 5 μM peptide, 2.31 ng/μL DPP-4, DPBS pH 7.6, 27 °C, fluorescence λex 325 nm / λem 390 nm, three replicates

| Compound | cleaved fold slower than the native NPY1–5 probe Y^SPSKPμ [fold] |
| --- | --- |
| COc1ccc2c(C[C@H](NC(=O)[C@@H]3CCCN3C(=O)[C@H](CCCCN)NC(=O)[C@H](CC(C)C)NC(=O)[C@@H]3CCCN3C(=S)[C@@H](N)Cc3ccc(O)cc3)C(=O)O)cc(=O)oc2c1 [Y^SPLKPμ] (X1-LKP[Ala(7-MeO-coumarin-4-yl)]-OH) | 2 |
| CC[C@H](C)[C@H](NC(=O)[C@@H]1CCCN1C(=S)[C@@H](N)Cc1ccc(O)cc1)C(=O)N[C@@H](CCCCN)C(=O)N1CCC[C@H]1C(=O)N[C@@H](Cc1cc(=O)oc2cc(OC)ccc12)C(=O)O [Y^SPIKPμ] (X1-IKP[Ala(7-MeO-coumarin-4-yl)]-OH) | 3 |

tested on: DPP-4 (dipeptidyl Peptidase IV human, recombinant, expressed in Sf9 cells); experiment: 2.31 ng/μL DPP-4 in DPBS buffer and pH 7.6 (PP-based probes also 4.62 ng/μL); conditions: 27°C, up to 400 min

| Compound | cleaved bond |
| --- | --- |
| APLEPμ | P-L |
| Y^SPIKPμ | P-I |
| YPSKPμ | P-S |
| YPLKPμ | P-L3 |
| Y^SPLKPμ | P-L3 |
| A^SPLEPμ | P-L |
| Y^SPSKPμ | P-S |
| YPIKPμ | P-I |
